According to patent US8541420B2, “Ketolide compounds having antimicrobial activity” (priority 2009, dated 2013):

Experiments:
S. pyogenes = assay: MIC by standard CLSI agar dilution method, macrolide sensitive and resistant S. pyogenes; format: cell-based; parameters: MIC S. pyogenes Ery Susc. (801) / MIC S. pyogenes HLermB (3530): unit not given beside the values; settings: 18 hrs at 37° C.; for MIC S. pyogenes Ery Susc. (801): strain Ery Susc. (801); for MIC S. pyogenes HLermB (3530): strain HLermB (3530), HL is High level resistance; for MIC S. pyogenes ermTR (810/806): strain ermTR (810/806); for MIC S. pyogenes mefA (806/763): strain mefA (806/763)
Description: (§1) The antibacterial activities of ketolide compounds of invention were evaluated by determining the minimal inhibitory concentration (MIC) according to standard CLSI agar dilution method. The media used for preculture and main culture were Tryptic Soya broth (Difco) and Mueller Hinton medium (Difco), respectively. The Mueller Hinton agar was supplemented with 5% sheep blood for streptococci and pneumococci, and with haemoglobin as well as NAD (nicotinamide adenine dinucleotide) for Haemophilus influenzae, respectively. Overnight cultures were diluted with buffered saline (pH 7.2) to the final cell density of 5×10^6-10^7 CFU/ml, and each bacterial suspension was applied with a replicator (Denley's multipoint inoculator, UK) onto a series of Mueller-Hinton agar plates containing antibacterial agents at various concentrations. Final inoculum was approximately 10^4 CFU/spot. The plates were incubated for 18 hrs at 37° C. The MIC was defined as the lowest concentration of an antibacterial agent that inhibits the development of visible microbial growth on agar.

S. pneumoniae = assay: MIC by standard CLSI agar dilution method, macrolide sensitive and resistant S. pneumoniae; format: cell-based; settings: 18 hrs at 37° C.; for MIC S. pneumoniae Ery Susc. (49619): strain Ery Susc. (49619); for MIC S. pneumoniae HL-ermB (3773): strain HL-ermB (3773), HL is High level resistance; for MIC S. pneumoniae ermB (786): strain ermB (786); for MIC S. pneumoniae mefA (772): strain mefA (772)
Description: as §1

| Compound | MIC S. pyogenes Ery Susc. (801) (S. pyogenes) | MIC S. pyogenes HLermB (3530) (S. pyogenes) | MIC S. pyogenes ermTR (810/806) (S. pyogenes) | MIC S. pyogenes mefA (806/763) (S. pyogenes) | MIC S. pneumoniae Ery Susc. (49619) (S. pneumoniae) | MIC S. pneumoniae HL-ermB (3773) (S. pneumoniae) | MIC S. pneumoniae ermB (786) (S. pneumoniae) | MIC S. pneumoniae mefA (772) (S. pneumoniae) |
| --- | --- | --- | --- | --- | --- | --- | --- | --- |
| (11S, 21R)-3-Decladinosyl-11,12-dideoxy-6-O-methyl-3-oxo-12,11-{oxycarbonyl-[E-amino-(2-(pyridin-2-yl)-1,3,4-thiadiazol-5-yl-methyl)oxy-imino-methylene]}-erythromycin A [Example 1] | 0.015 | 0.5 | 0.015 | 0.06 | 0.007 | 1.0 | 0.06 | 0.06 |
| (11S,21R)-3-Decladinosyl-11,12-dideoxy-6-O-methyl-3-oxo-12,11-{oxycarbonyl-[E-amino-(2-(pyrimidin-2-yl)-1,3,4-thiadiazol-5-yl-methyl)oxy-imino-methylene]}-erythromycin A [Example 2] | 0.007 | 0.25 | 0.015 | 0.06 | 0.007 | 1.0 | 0.06 | 0.25 |
| CC[C@H]1OC(=O)[C@H](C)C(=O)[C@H](C)[C@@H](O[C@@H]2O[C@H](C)C[C@H](N(C)C)[C@H]2O)[C@](C)(OC)C[C@@H](C)C(=O)[C@H](C)[C@H]2N(CCCCn3cnc(-c4cccnc4)c3)C(=O)O[C@]12C [Telithromycin, reference compound] | 0.03 | 16.0 | 0.03 | 0.06 | 0.007 | 4.0 | 0.5 | 1.0 |
